# From the supplement of paper PMC10307832
# Compound: CC1(C)CNc2cc(NC(=O)c3cccnc3NCc3ccncc3)ccc21 [Motesanib] + CC(=O)Nc1cccc(-n2c(=O)n(C3CC3)c(=O)c3c(Nc4ccc(I)cc4F)n(C)c(=O)c(C)c32)c1 [Trametinib] (partner 0.02 µM)
# Assay: relative viability (nuclei count vs DMSO), 5 days (fraction); higher = more cells survive
# Conditions: first compound 0.01 µM
# In short: (§1)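 The day after seeding in 1536-well plates, lung cancer cell lines were treated by pin tool with a single drug, or with a fixed anchor-drug dose together with five library-drug doses (not always all listed) in √10 steps. After 5 days, a combined fix-and-stain solution (final 0.05% Triton X-100, 1% formaldehyde, 1 ug/ml Hoechst) was added. Nuclei counted on 4× images gave relative viability as treated counts over vehicle counts, reported as the median of duplicate plates.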
row,Cell Line,relative viability
1,NCI-H2342,0.933
2,NCI-H727,0.381
3,NCI-H1650,0.684
4,NCI-H1993,0.598
5,SW 1573,0.613
6,NCI-H838,0.494
7,LCLC-103H,0.674
8,NCI-H520,0.516
9,NCI-H2126,0.58
10,EMC-BAC-2,0.756
11,NCI-H2085,0.513
12,HCC-366,0.396
13,NCI-H1666,0.736
14,NCI-H596,0.68
15,LK-2,0.662
16,NCI-H1648,0.433
17,SK-MES-1,0.575

row,Cell Line,relative viability
1,H3255,0.533
2,COR-L23,0.352
3,COR-L 105,0.451
4,LOU-NH91,0.789
5,ChaGo-K-1,0.894
6,NCI-H2170,0.861
7,NCI-H2405,0.53
8,HOP-62,0.366
9,HCC-44,1.01
10,NCI-H522,0.815
11,SW 900,0.855
12,NCI-H1395,0.98
13,CAL-12T,0.324
14,NCI-H2228,0.395
15,NCI-H1793,0.375
16,NCI-H1944,0.438
17,NCI-H358,0.13

# Same assay, conditions: first compound 0.03162 µM
row,Cell Line,relative viability
1,NCI-H2342,0.715
2,NCI-H727,0.363
3,NCI-H1650,0.531
4,NCI-H1993,0.566
5,SW 1573,0.503
6,NCI-H838,0.568
7,LCLC-103H,0.707
8,NCI-H520,0.561
9,NCI-H2126,0.579
10,EMC-BAC-2,0.909
11,NCI-H2085,0.537
12,HCC-366,0.302
13,NCI-H1666,0.904
14,NCI-H596,0.918
15,LK-2,0.71
16,SK-MES-1,0.587
17,H3255,0.681

row,Cell Line,relative viability
1,COR-L23,0.654
2,COR-L 105,0.383
3,LOU-NH91,0.767
4,ChaGo-K-1,0.889
5,NCI-H2170,0.872
6,NCI-H2405,0.603
7,HOP-62,0.379
8,HCC-44,1.06
9,NCI-H522,0.848
10,SW 900,0.764
11,NCI-H1395,0.977
12,CAL-12T,0.316
13,NCI-H2228,0.764
14,NCI-H1793,0.362
15,NCI-H1944,0.442
16,NCI-H358,0.137

# Same assay, conditions: first compound 0.1 µM
row,Cell Line,relative viability
1,NCI-H2342,0.907
2,NCI-H727,0.385
3,NCI-H1650,0.636
4,NCI-H1993,0.49
5,SW 1573,0.721
6,NCI-H838,0.507
7,LCLC-103H,0.659
8,NCI-H520,0.68
9,NCI-H2126,0.579
10,EMC-BAC-2,0.861
11,NCI-H2085,0.521
12,HCC-366,0.282
13,NCI-H1666,0.905
14,NCI-H596,0.761
15,LK-2,0.696
16,NCI-H2087,0.199
17,SK-MES-1,0.593

row,Cell Line,relative viability
1,H3255,0.684
2,COR-L23,0.602
3,COR-L 105,0.41
4,LOU-NH91,0.819
5,ChaGo-K-1,0.91
6,NCI-H2170,0.91
7,NCI-H2405,0.625
8,HOP-62,0.37
9,HCC-44,1.05
10,NCI-H522,0.823
11,SW 900,0.938
12,NCI-H1395,1.06
13,CAL-12T,0.33
14,NCI-H2228,0.459
15,NCI-H1793,0.513
16,NCI-H1944,0.408
17,NCI-H358,0.129

# Same assay, conditions: first compound 0.3162 µM
row,Cell Line,relative viability
1,NCI-H2342,0.77
2,NCI-H727,0.379
3,NCI-H1650,0.547
4,NCI-H1993,0.718
5,SW 1573,0.593
6,NCI-H838,0.544
7,LCLC-103H,0.744
8,NCI-H520,0.655
9,NCI-H2126,0.543
10,EMC-BAC-2,0.797
11,NCI-H2085,0.535
12,HCC-366,0.385
13,NCI-H1666,0.858
14,NCI-H596,0.798
15,LK-2,0.87
16,NCI-H2087,0.182
17,NCI-H1648,0.566
18,SK-MES-1,0.565

row,Cell Line,relative viability
1,H3255,0.626
2,COR-L23,0.708
3,COR-L 105,0.422
4,LOU-NH91,0.802
5,ChaGo-K-1,0.942
6,NCI-H2170,0.909
7,NCI-H2405,0.684
8,HOP-62,0.405
9,HCC-44,1.12
10,NCI-H522,0.831
11,SW 900,0.683
12,NCI-H1395,1.04
13,CAL-12T,0.402
14,NCI-H2228,0.505
15,NCI-H1793,0.409
16,NCI-H1944,0.455
17,NCI-H358,0.163

# Same assay, conditions: first compound 1 µM
row,Cell Line,relative viability
1,NCI-H2342,0.959
2,NCI-H727,0.354
3,NCI-H1650,0.623
4,NCI-H1993,0.5
5,SW 1573,0.628
6,NCI-H838,0.529
7,LCLC-103H,0.682
8,NCI-H520,0.627
9,NCI-H2126,0.547
10,EMC-BAC-2,0.948
11,NCI-H2085,0.526
12,HCC-366,0.334
13,NCI-H1666,0.838
14,NCI-H596,0.958
15,LK-2,0.811
16,NCI-H2087,0.182
17,NCI-H1648,0.471
18,SK-MES-1,0.617

row,Cell Line,relative viability
1,H3255,0.67
2,COR-L23,0.74
3,COR-L 105,0.448
4,LOU-NH91,0.781
5,ChaGo-K-1,0.95
6,NCI-H2170,0.979
7,NCI-H2405,0.704
8,HOP-62,0.424
9,HCC-44,1.19
10,NCI-H522,0.84
11,SW 900,0.848
12,NCI-H1395,1.19
13,CAL-12T,0.419
14,NCI-H2228,0.466
15,NCI-H1793,0.523
16,NCI-H1944,0.384
17,NCI-H358,0.138

# Compound: CC1(C)CNc2cc(NC(=O)c3cccnc3NCc3ccncc3)ccc21 [Motesanib] + CC(C)C[C@H](NC(=O)[C@H](Cc1ccccc1)NC(=O)c1cnccn1)B(O)O [Bortezomib] (partner 0.002 µM)
# Assay: as above
# Conditions: first compound 0.01 µM
# In short: as §1
row,Cell Line,relative viability
1,NCI-H727,0.735
2,NCI-H1650,0.204
3,EBC-1,0.637
4,NCI-H1703,0.25
5,NCI-H1993,1.09
6,SW 1573,1.17
7,NCI-H838,0.887
8,NCI-H520,0.482
9,NCI-H2126,1.07
10,EMC-BAC-2,1.03
11,NCI-H2085,1.14
12,Calu-6,0.896
13,HCC-366,1.06
14,NCI-H1666,0.845
15,NCI-H596,0.995
16,NCI-H2087,0.796
17,H3255,0.714
18,COR-L23,1.01
19,COR-L 105,0.873
20,IA-LM,0.879
21,LOU-NH91,0.468
22,NCI-H2405,0.907
23,HOP-62,0.862
24,HCC-44,0.905
25,NCI-H1299,1.02
26,NCI-H2228,0.957
27,NCI-H1563,0.934
28,ABC-1,0.282

# Same assay, conditions: first compound 0.03162 µM
row,Cell Line,relative viability
1,NCI-H727,0.926
2,EBC-1,0.56
3,NCI-H1703,0.264
4,NCI-H1993,1.06
5,SW 1573,1.02
6,NCI-H838,0.957
7,LCLC-103H,1.02
8,NCI-H520,0.747
9,NCI-H2126,1.17
10,EMC-BAC-2,1.01
11,NCI-H2085,1.12
12,Calu-6,1.04
13,HCC-366,1
14,NCI-H1666,0.766
15,NCI-H596,0.872
16,NCI-H2087,0.781
17,H3255,0.733
18,COR-L23,0.974
19,COR-L 105,1.01
20,IA-LM,0.704
21,LOU-NH91,0.507
22,ChaGo-K-1,0.666
23,NCI-H2405,0.925
24,HOP-62,0.791
25,HCC-44,0.877
26,NCI-H1299,1.02
27,NCI-H2228,1.13
28,NCI-H1563,0.812
29,ABC-1,0.341

# Same assay, conditions: first compound 0.1 µM
row,Cell Line,relative viability
1,NCI-H727,0.883
2,NCI-H1650,0.191
3,EBC-1,0.557
4,NCI-H1703,0.228
5,NCI-H1993,1.08
6,SW 1573,1.09
7,NCI-H838,0.758
8,LCLC-103H,1.16
9,NCI-H520,0.432
10,NCI-H2126,1.11
11,EMC-BAC-2,1.02
12,NCI-H2085,0.977
13,Calu-6,0.926
14,HCC-366,1.06
15,NCI-H1666,0.816
16,NCI-H2087,0.885
17,H3255,0.637
18,COR-L23,1.04
19,COR-L 105,0.939
20,IA-LM,0.816
21,LOU-NH91,0.486
22,ChaGo-K-1,0.841
23,NCI-H2405,0.96
24,HOP-62,0.735
25,HCC-44,0.994
26,NCI-H1299,1.04
27,CAL-12T,0.906
28,NCI-H2228,0.881
29,NCI-H1563,0.956
30,ABC-1,0.221

# Same assay, conditions: first compound 0.3162 µM
row,Cell Line,relative viability
1,NCI-H727,0.919
2,NCI-H1650,0.185
3,EBC-1,0.537
4,NCI-H1703,0.192
5,NCI-H1993,1.28
6,SW 1573,1.03
7,NCI-H838,0.965
8,LCLC-103H,1.03
9,NCI-H520,0.653
10,NCI-H2126,1.17
11,EMC-BAC-2,1.07
12,NCI-H2085,1.09
13,Calu-6,1.05
14,HCC-366,0.997
15,NCI-H1666,0.77
16,NCI-H596,1.18

row,Cell Line,relative viability
1,NCI-H2087,0.76
2,H3255,0.936
3,COR-L23,1.11
4,COR-L 105,1.02
5,IA-LM,0.819
6,LOU-NH91,0.52
7,ChaGo-K-1,0.976
8,NCI-H2405,0.998
9,HOP-62,0.802
10,HCC-44,0.974
11,NCI-H1299,1.01
12,CAL-12T,1.16
13,NCI-H2228,1.28
14,NCI-H1563,0.882
15,ABC-1,0.284

# Same assay, conditions: first compound 1 µM
row,Cell Line,relative viability
1,NCI-H727,0.818
2,NCI-H1650,0.207
3,EBC-1,0.559
4,NCI-H1703,0.265
5,NCI-H1993,1.06
6,SW 1573,0.928
7,NCI-H838,0.891
8,LCLC-103H,1.07
9,NCI-H520,0.693
10,NCI-H2126,1.12
11,EMC-BAC-2,1.08
12,NCI-H2085,1.14
13,Calu-6,0.889
14,HCC-366,1.09
15,NCI-H1666,0.862
16,NCI-H596,0.995
17,NCI-H2087,0.704
18,H3255,0.799
19,COR-L23,0.914
20,COR-L 105,0.785
21,IA-LM,0.783
22,LOU-NH91,0.581
23,ChaGo-K-1,1.11
24,NCI-H2405,1.04
25,HOP-62,0.907
26,HCC-44,0.885
27,NCI-H1299,1.05
28,CAL-12T,0.926
29,NCI-H2228,1.01
